Source: ChEMBL document CHEMBL1140519, “2-(2-Chloro-6-fluorophenyl)acetamides as potent thrombin inhibitors” (Bioorg Med Chem Lett, 2007)

Biological target: Prothrombin (Homo sapiens, UniProt P00734)
Assay: Inhibition of human thrombin after 15 mins by standard chromogenic assay

Question: `NC(N)=NOCCNC(=O)Cc1c(Cl)ccc(NCC(F)(F)c2cccnc2)c1F` was tested. Which Ki did it give?
Answer: The Ki was 33.9 nM.

Question: `N=C(N)NOCCNC(=O)Cc1c(Cl)ccc(NCC(F)(F)c2cccc3cccnc23)c1F` was tested. Which Ki did it give?
Answer: The Ki was 2.7 nM.

Question: How did the Ki turn out when `CC(C)(CNc1ccc(Cl)c(CC(=O)NCCONC(=N)N)c1F)c1ccccn1` was run?
Answer: The Ki was 58 nM.

Question: How did the Ki turn out when `CC(C)(CNc1ccc(Cl)c(CC(=O)NCCONC(=N)N)c1F)c1cccnc1` was run?
Answer: The Ki was 128 nM.

Question: `NC(N)=NOCCNC(=O)Cc1c(Cl)ccc(NCC(F)(F)c2cccc3cnccc23)c1F` was tested. Which Ki did it give?
Answer: Its Ki is 4.7 nM.

Question: With `NC(N)=NOCCNC(=O)Cc1c(Cl)ccc(NCC(F)(F)c2ccccn2)c1F` as the molecule, how does the Ki read?
Answer: Its Ki is 8.6 nM.

Question: For `N=C(N)NOCCNC(=O)Cc1c(Cl)ccc(NCC2(c3cccnc3)CC2)c1F`, which Ki is on record?
Answer: Its Ki is 142 nM.

Question: For `Cc1nc(N)ccc1CNC(=O)Cc1c(Cl)ccc(NCC(F)(F)c2ccc(Cl)cn2)c1F`, which Ki is on record?
Answer: Its Ki is 0.7 nM.

Question: Which Ki does the source give for `N=C(N)NOCCNC(=O)Cc1c(Cl)ccc(NS(=O)(=O)c2ccccc2)c1F` here?
Answer: The Ki was 1280 nM.

Question: For `N=C(N)NOCCNC(=O)Cc1c(Cl)ccc(NCC(F)(F)c2cnc3ccccc3c2)c1F`, which Ki is on record?
Answer: Its Ki is 169 nM.

Question: Which Ki does the source give for `NC(N)=NOCCNC(=O)Cc1c(Cl)ccc(NCC(F)(F)c2ccc(Cl)cn2)c1F` here?
Answer: The Ki was 1.8 nM.

Question: With `Cc1nc(N)ccc1CNC(=O)Cc1c(Cl)ccc(NCC(F)(F)c2ccc(Cl)c[n+]2[O-])c1F` as the molecule, how does the Ki read?
Answer: Its Ki is 0.9 nM.

Question: With `Cc1nc(N)ccc1CNC(=O)Cc1c(Cl)ccc(NCC(F)(F)c2ccccc2)c1F` as the molecule, how does the Ki read?
Answer: The Ki was 10.3 nM.

Question: With `N=C(N)NOCCNC(=O)Cc1c(Cl)ccc(NCC2(c3ccccn3)CC2)c1F` as the molecule, how does the Ki read?
Answer: Its Ki is 57 nM.
